{"source": "patent US20100256357A1", "about": "“HETEROCYCLES USEFUL AS INHIBITORS OF CARBONIC ANHYDRASE” (Agouron Pharmaceuticals, Inc., priority 2006, published 2010)"}
{"target": "T1, human CA-IV (Homo sapiens, UniProt P22748)", "T1 construct": "made in house; host or cells: Escherichia coli BL21(DE3)", "T1 sequence (P22748 19-284 limits assumed)": "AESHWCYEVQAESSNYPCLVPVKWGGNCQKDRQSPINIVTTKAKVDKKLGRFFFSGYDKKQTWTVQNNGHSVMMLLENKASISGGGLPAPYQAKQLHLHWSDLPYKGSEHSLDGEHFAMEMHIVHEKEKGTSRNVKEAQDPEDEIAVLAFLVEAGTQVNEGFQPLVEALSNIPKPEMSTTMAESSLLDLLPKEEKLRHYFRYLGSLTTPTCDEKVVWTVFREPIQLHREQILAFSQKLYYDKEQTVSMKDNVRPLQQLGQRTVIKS", "assay": "Carbonic Anhydrase-IV (CA-IV) Fluorescence Polarization Assay-IC50 Determination", "format": "binding", "conditions": "read-out: IC50_CAIV", "description": "Carbonic Anhydrase-IV (CA-IV) Fluorescence Polarization Assay-IC50 Determination\nThese cells were grown in Luria broth (LB) media (Biomyx) supplemented with 800 uM ZnCl2 at 37° C. until an O.D.600 of 0.7, at which point the cells were induced with 100 uM isopropyl-beta-D-thiogalactopyranoside (IPTG) for 20 hours at 20° C. The frozen pellet was resuspended in 50mM 2-morpholinoethanesulfonic acid (MES) at pH 6.0, 100 mM NaCl, 800 uM ZnCl2 and EDTA-Free protease inhibitors (Roche). The cells were lysed with a microfluidizer, the lysate was spun at 40,000 rpm for 45 minutes at 4° C., and the soluble fraction was dialyzed overnight at 4° C. in 50 mM MES pH 6.0, and 100 mM NaCl. The soluble fraction was then put over a 100 ml SP-Sepharose High Performance (GE Healthcare) column and eluted with a 50 mM MES pH 6.0, 750 mM NaCl gradient. The peak fractions were then concentrated, via an Amicon Ultra-4 10,000 MWCO (Millipore) spin column to 2.0 mL and loaded onto a Sephacryl S-100 High Resolution (GE Healthcare) column in 25 mM tris(hydroxymethyl)aminomethane hydrochloride (Tris-HCl) pH 7.0, and 100 mM NaCl. The peak fractions were then concentrated, via an Amicon Ultra-4 10,000 MWCO (Millipore) spin column, to 7.0 mg/mL and left exposed at room temperature overnight. […] T.; et al. Carbonic Anhydrase Inhibitors. Med. Res. Rev. […]\nAssays were conducted in a final volume of 100 μL in 50 mM Tris/HCl (pH 7.6), 100 mM Na2SO4 and 0.005% Tween-20 in a 96-well black assay plate.", "units": {"IC50": "nM"}}
{"smiles": "CN(Cc1cc(Cc2ccccc2)n(-c2ccc(S(N)(=O)=O)cc2F)n1)C1CCCCC1", "note": "[Example -1h, 4-(5-benzyl-3-{[cyclohexyl(methyl)amino]methyl}-1H-pyrazol-1-yl)-3-fluorobenzenesulfonamide]", "IC50": 186}
{"smiles": "NS(=O)(=O)c1ccc(-n2nc3c(c2CN2CCOCC2)CCCC3)cc1", "note": "[II-1c, 4-[3-(morpholin-4-ylmethyl)-4,5,6,7-tetrahydro-2H-indazol-2-yl]benzenesulfonamide]", "IC50": "≥ 5000"}
{"smiles": "CCNC(=O)c1cc(C)n(-c2ccc(S(N)(=O)=O)cc2C(=O)NCc2ccccc2)n1", "note": "[KK-1h, 1-{4-(aminosulfonyl)-2-[(benzylamino)carbonyl]phenyl}-N-ethyl-5-methyl-1H-pyrazole-3-carboxamide]", "IC50": 2190}
{"smiles": "CCNC(=O)c1cc(C)n(-c2ccc(S(N)(=O)=O)cc2C(=O)NCC)n1", "note": "[KK-1m, 1-{4-(aminosulfonyl)-2-[(ethylamino)carbonyl]phenyl}-N-ethyl-5-methyl-1H-pyrazole-3-carboxamide]", "IC50": "> 5000"}
{"smiles": "NS(=O)(=O)c1ccc(-n2nc(C(F)(F)F)c3c2CCNC3)c(C(=O)NCc2ccncc2)c1", "note": "[KK-1n, 5-(aminosulfonyl)-N-(pyridin-4-ylmethyl)-2-[3-(trifluoromethyl)-4,5,6,7-tetrahydro-1H-pyrazolo[4,3-c]pyridin-1-yl]benzamide]", "IC50": "> 5000"}
{"smiles": "CCNC(=O)c1cc(C)n(-c2ccc(S(N)(=O)=O)cc2C(=O)NCc2ccncc2)n1", "note": "[KK-1o, 1-[4-(aminosulfonyl)-2-{[(pyridin-4-ylmethyl)amino]carbonyl}phenyl]-N-ethyl-5-methyl-1H-pyrazole-3-carboxamide]", "IC50": 4530}
{"smiles": "NS(=O)(=O)c1ccc(-n2nc(C(F)(F)F)c3c2CCNC3)c(C(=O)NCc2ccccc2)c1", "note": "[KK-1p, 5-(aminosulfonyl)-N-benzyl-2-[3-(triflurormethyl)-4,5,6,7-tetrahydro-1H-pyrazolo[4,3-c]pyridin-1-yl]benzamide]", "IC50": "> 5000"}
{"smiles": "CCNC(=O)c1cc(C)n(-c2ccc(S(N)(=O)=O)cc2C(=O)OC(C)C)n1", "note": "[KK-1r]", "IC50": 1310}
{"smiles": "CCNCc1cc(S(N)(=O)=O)ccc1-n1nc(C(F)(F)F)c2c1CCCC2", "note": "[LL-1, 3-[(Ethylamino)methyl]-4-[3-(trifluoromethyl)-4,5,6,7-tetrahydro-1H-indazol-1-yl]-benzene-sulfonamide]", "IC50": "≥ 5000"}
{"smiles": "Cc1cc(C(=O)N2CCOCC2)nn1-c1ccc(S(N)(=O)=O)cc1CNCc1ccccc1", "note": "[LL-1a, 3-[(benzylamino)methyl]-4-(5-methyl-3-(morpholin-4-ylcarbonyl)-1H-pyrazol-1-yl]benzenesulfonamide]", "IC50": "> 5000"}
{"smiles": "Cc1cccc(Cc2cc(CN3CCC(F)(F)C3)nn2-c2ccc(S(N)(=O)=O)cc2F)c1", "note": "[PP-1, 4-[3-[(3,3-difluoropyrrolidin-1-yl)methyl]-5-(3-methylbenzyl)-1H-pyrazol-1-yl]-3-fluorobenzenesulfonamide]", "IC50": 114}
{"smiles": "Cc1cccc(Cc2cc(CN3CCCC(C#N)C3)nn2-c2ccc(S(N)(=O)=O)cc2F)c1", "note": "(stereo not drawn) [PP-1a, 4-[3-[(3-cyanopiperidin-1-yl)methyl]-5-(3-methylbenzyl)-1H-pyrazol-1-yl]-3-fluorobenzenesulfonamide]", "IC50": 168}
{"smiles": "COCCN(C)Cc1cc(Cc2cccc(C)c2)n(-c2ccc(S(N)(=O)=O)cc2F)n1", "note": "[PP-1b, 3-fluoro-4-[3-{[(2-methoxyethyl)(methyl)amino]methyl}-5-(3-methylbenzyl)-1H-pyrazol-1-yl]benzenesulfonamide]", "IC50": 145}
{"smiles": "CCCN(C)Cc1cc(Cc2ccccc2)n(-c2ccc(S(N)(=O)=O)cc2F)n1", "note": "[QQ-1, 4-(5-benzyl-3-{[methyl(propyl)amino]methyl}-1H-pyrazol-1-yl)-3-fluorobenzenesulfonamide]", "IC50": 301}
{"smiles": "NS(=O)(=O)c1ccc(-n2nc(CN3CCOCC3)cc2Cc2ccc(Cl)cc2)cc1", "note": "[QQ-1a, 4-[5-(4-chlorobenzyl)-3-(morpholin-4-ylmethyl)-1H-pyrazol-1-yl]benzenesulfonamide]", "IC50": 563}
